Test results as given in ChEMBL document CHEMBL4371087, “Development of novel liver X receptor modulators based on a 1,2,4-triazole scaffold” (Bioorg Med Chem Lett, 2019).
Activity calls are given as the source filed them. The calls are words filed in the database; no cut-off is given here.

Tests used:
Type in all cases: cell-based
[1] = biological target: T1, Oxysterols receptor LXR-beta (Homo sapiens) (UniProt P55055); assay: Agonist activity at full length human LXRbeta expressed in HEK293 cells harboring LXRE-Luc promoter at 10 uM by luciferase reporter gene assay relative to T0901317
T1 sequence (whole entry): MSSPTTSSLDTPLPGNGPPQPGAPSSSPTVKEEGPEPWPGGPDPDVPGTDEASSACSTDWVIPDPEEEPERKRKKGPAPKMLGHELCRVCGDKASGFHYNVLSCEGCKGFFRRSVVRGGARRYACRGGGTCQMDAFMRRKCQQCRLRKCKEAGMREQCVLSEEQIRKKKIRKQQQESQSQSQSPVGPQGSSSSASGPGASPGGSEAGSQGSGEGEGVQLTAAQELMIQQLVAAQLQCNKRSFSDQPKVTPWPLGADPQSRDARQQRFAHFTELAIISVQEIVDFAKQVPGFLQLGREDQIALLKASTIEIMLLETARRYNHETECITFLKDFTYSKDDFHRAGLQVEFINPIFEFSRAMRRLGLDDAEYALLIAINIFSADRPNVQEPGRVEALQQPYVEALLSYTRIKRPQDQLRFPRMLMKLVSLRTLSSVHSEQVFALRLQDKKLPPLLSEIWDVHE

[2] = biological target: T2, Oxysterols receptor LXR-alpha (Homo sapiens, UniProt Q13133); assay: Agonist activity at full length human LXRalpha expressed in HEK293 cells harboring LXRE-Luc promoter by luciferase reporter gene assay
T2 sequence (Q13133 whole entry): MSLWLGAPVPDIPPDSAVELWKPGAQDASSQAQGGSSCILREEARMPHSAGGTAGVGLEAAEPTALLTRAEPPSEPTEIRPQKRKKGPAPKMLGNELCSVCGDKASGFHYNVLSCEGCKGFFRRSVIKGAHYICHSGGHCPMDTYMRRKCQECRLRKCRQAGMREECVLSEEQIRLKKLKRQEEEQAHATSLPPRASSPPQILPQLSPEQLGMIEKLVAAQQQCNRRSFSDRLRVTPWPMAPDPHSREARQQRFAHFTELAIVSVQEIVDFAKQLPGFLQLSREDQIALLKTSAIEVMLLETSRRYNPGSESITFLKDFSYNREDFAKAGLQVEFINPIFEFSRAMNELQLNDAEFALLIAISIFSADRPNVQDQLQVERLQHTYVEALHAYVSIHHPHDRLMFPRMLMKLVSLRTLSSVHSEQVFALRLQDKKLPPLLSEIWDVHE

[3] = biological target: T3, Oxysterols receptor LXR-beta (Homo sapiens, UniProt P55055); assay: Agonist activity at full length human LXRbeta expressed in HEK293 cells harboring LXRE-Luc promoter by luciferase reporter gene assay
T3 sequence (P55055 whole entry): T1 sequence (whole entry)

Homo sapiens = species on record: Homo sapiens; assay: Selectivity ratio of EC50 for full length human LXRalpha expressed in HEK293 cells to EC50 for full length human LXRbeta expressed in HEK293 cells
[4] = biological target: T4, Oxysterols receptor LXR-alpha (Homo sapiens) (UniProt Q13133); assay: Agonist activity at full length human LXRalpha expressed in HEK293 cells harboring LXRE-Luc promoter at 10 uM by luciferase reporter gene assay relative to T0901317
T4 sequence (whole entry): T2 sequence (Q13133 whole entry)

Emax [1] | EC50 [2] | EC50 [3] | Emax [4] | SMILES | Ratio EC50 (Homo sapiens)
60% | 309 nM | 245 nM | 51% | Clc1ccc(-c2n[nH]c(-c3ccccc3)n2)cc1 | 1.26
81% | 1700 nM | 259 nM | 75% | Cc1ccc(S(=O)(=O)n2nc(-c3ccccc3)nc2-c2ccccc2)cc1 | 6.58
62% | 164 nM | 68 nM | 55% | Brc1ccc(-c2n[nH]c(-c3ccccc3)n2)cc1 | 2.41
inactive | 2180 nM | – | 58% | c1ccc(Cn2nc(-c3ccccc3)nc2-c2ccccc2)cc1 | –
– | 2200 nM | 6150 nM | – | c1ccc(Cc2nc(-c3ccccc3)n[nH]2)cc1 | 0.36
– | 526 nM | 640 nM | – | Clc1ccccc1-c1n[nH]c(-c2ccccc2)n1 | –
78% | 115 nM | 109 nM | 62% | COc1cccc(-c2nc(-c3ccccc3)n(C(C)=O)n2)c1 | 1.06
inactive | – | – | inactive | c1ccc(-c2n[nH]c(-c3cccnc3)n2)cc1 | –
61% | 2130 nM | 6710 nM | 53% | Clc1ccc(-c2nc(-c3ccccc3)n(Cc3ccccc3)n2)cc1 | 0.32
68% | 701 nM | 1420 nM | 50% | CC(=O)n1nc(Cc2ccccc2)nc1-c1ccccc1 | 0.49
inactive | 2290 nM | – | 60% | CCn1nc(-c2ccc(Cl)cc2)nc1-c1ccccc1 | –
inactive | – | – | inactive | CCCCn1nc(-c2ccc(Cl)cc2)nc1-c1ccccc1 | –
71% | 2240 nM | 5650 nM | 45% | CCn1nc(-c2ccc(Br)cc2)nc1-c1ccccc1 | 0.4
73% | 77 nM | 85 nM | 62% | Cc1ccc(-c2n[nH]c(-c3ccccc3)n2)cc1 | 0.91
72% | 108 nM | 68 nM | 60% | COc1cccc(-c2n[nH]c(-c3ccccc3)n2)c1 | 1.59
– | 396 nM | 232 nM | – | CC(=O)n1nc(-c2ccccc2)nc1-c1ccccc1 | –
inactive | 2470 nM | – | 65% | CCCCn1nc(-c2ccccc2)nc1-c1ccccc1 | –
inactive | – | – | inactive | COc1cccc(-c2nc(-c3ccccc3)n(S(=O)(=O)c3ccc(C)cc3)n2)c1 | –
61% | 570 nM | 966 nM | 46% | Clc1ccccc1-c1n[nH]c(Cc2ccccc2)n1 | 0.59
69% | 903 nM | 2360 nM | 62% | COc1cccc(-c2nc(-c3ccccc3)n(Cc3ccccc3)n2)c1 | 0.38
inactive | – | – | inactive | CCn1nc(-c2ccccc2)nc1-c1ccccc1 | –
83% | 1190 nM | 1990 nM | 77% | Cn1nc(-c2ccc(Cl)cc2)nc1-c1ccccc1 | 0.6
73% | – | 2570 nM | inactive | Clc1ccc(-c2n[nH]c(Cc3ccccc3)n2)cc1 | –
– | 142 nM | 1010 nM | – | c1ccc(-c2n[nH]c(-c3ccccc3)n2)cc1 | –
69% | 5030 nM | 712 nM | 78% | Brc1ccc(-c2nc(-c3ccccc3)n(Cc3ccccc3)n2)cc1 | 7.06
62% | 228 nM | 351 nM | 53% | CC(=O)n1nc(-c2ccc(C)cc2)nc1-c1ccccc1 | 0.65
71% | 2470 nM | 2640 nM | 64% | Cn1nc(-c2ccccc2)nc1-c1ccccc1 | 0.94
– | 113 nM | 231 nM | – | CC(=O)n1nc(-c2ccc(Br)cc2)nc1-c1ccccc1 | –
67% | 390 nM | 493 nM | 52% | Brc1ccccc1-c1n[nH]c(-c2ccccc2)n1 | 0.79
inactive | – | – | inactive | c1ccc(-c2nc(-c3ccccc3)n(C3CC3)n2)cc1 | –
